Here are results for 13 molecules from US10519134B2, “Pyrazole compounds and methods of making and using same” (Lundbeck La Jolla Research Center, Inc., priority 2015, dated 2019).

The target in assay [1] is T1, MAGL (Mus musculus, UniProt O35678).
T1 construct: Proteomes (mouse brain membrane fraction or cell lysates); from tissue; host or cells: mouse brain membrane fraction (or cell lysates)
T1 sequence (O35678 1-303): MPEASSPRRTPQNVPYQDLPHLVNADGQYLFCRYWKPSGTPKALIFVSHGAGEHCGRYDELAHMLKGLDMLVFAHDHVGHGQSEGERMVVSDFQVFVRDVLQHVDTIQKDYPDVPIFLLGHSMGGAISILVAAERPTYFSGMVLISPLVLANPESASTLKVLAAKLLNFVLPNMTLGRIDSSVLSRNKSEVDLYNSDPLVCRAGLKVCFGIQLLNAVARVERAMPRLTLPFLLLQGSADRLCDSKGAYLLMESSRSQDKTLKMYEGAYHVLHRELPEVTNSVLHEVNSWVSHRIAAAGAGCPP
Briefly: In vitro competitive activity-based protein profiling (mouse), MAGL gel band. It is filed as biochemical. As to conditions: for inhibition at 1 µM: read-out: MAGL % inh. 1 μM; for IC50: mouse. In outline: (§1)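 Gel-based competitive ABPP: proteome 1.0 mg/mL, inhibitor 30 min 37 °C, then FP-Rh or HT-01 probe (stock 50 μM) 30 min 37 °C; SDS quench, SDS-PAGE, in-gel fluorescence of the enzyme band quantified.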

In the next assay the target is T2, FAAH (Mus musculus, UniProt O08914).
T2 construct: Proteomes (mouse brain membrane fraction or cell lysates); from tissue; host or cells: mouse brain membrane fraction (or cell lysates)
T2 sequence (O08914 1-579): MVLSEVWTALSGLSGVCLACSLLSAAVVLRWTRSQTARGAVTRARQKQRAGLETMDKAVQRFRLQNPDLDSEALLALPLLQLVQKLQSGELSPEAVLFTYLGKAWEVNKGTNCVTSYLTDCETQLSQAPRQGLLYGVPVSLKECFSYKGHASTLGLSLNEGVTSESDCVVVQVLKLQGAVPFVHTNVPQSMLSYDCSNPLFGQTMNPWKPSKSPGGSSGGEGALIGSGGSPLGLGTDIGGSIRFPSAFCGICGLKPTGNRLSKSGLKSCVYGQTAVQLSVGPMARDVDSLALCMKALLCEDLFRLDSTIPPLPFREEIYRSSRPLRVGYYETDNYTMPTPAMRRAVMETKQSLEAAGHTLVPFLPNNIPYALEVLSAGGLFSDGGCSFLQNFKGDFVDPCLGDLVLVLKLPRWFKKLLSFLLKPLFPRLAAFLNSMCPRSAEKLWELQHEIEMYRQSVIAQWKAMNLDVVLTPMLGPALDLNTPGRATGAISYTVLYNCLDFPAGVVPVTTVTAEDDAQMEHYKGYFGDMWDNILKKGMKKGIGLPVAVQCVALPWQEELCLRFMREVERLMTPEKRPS
Briefly: In vitro competitive activity-based protein profiling (mouse), FAAH gel band. The assay is classed as biochemical. Particulars: for inhibition at 1 µM: read-out: FAAH % inh. 1 μM; for IC50: mouse. Summed up:
as §1

Assay [2] addresses T3, MAGL (Homo sapiens, UniProt Q99685).
T3 construct: Proteomes (human prefrontal cortex or cell membrane fractions); from tissue; host or cells: human prefrontal cortex (or cell membrane fractions)
T3 sequence (Q99685 1-303): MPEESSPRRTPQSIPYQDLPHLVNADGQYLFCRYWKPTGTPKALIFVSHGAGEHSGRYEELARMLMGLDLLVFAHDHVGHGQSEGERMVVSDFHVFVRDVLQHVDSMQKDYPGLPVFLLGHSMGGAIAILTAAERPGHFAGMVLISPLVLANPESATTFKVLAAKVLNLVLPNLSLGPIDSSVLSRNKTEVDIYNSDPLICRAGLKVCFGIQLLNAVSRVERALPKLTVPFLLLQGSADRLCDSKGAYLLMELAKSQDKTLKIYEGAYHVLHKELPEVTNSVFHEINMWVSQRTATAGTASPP
Briefly: In vitro competitive activity-based protein profiling (human), MAGL gel band. It is filed as biochemical. In outline:
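Human prefrontal cortex or cell membrane proteomes (1.0-2.0 mg/mL protein) preincubated with inhibitors 30 min at 37° C, then labelled with FP-Rh or JW912 probe 30 min at room temperature. Residual MAGL activity read as fluorescent gel-band intensity after SDS-PAGE.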

Assay [3] concerns the target T1, MAGL. Briefly: Mouse brain proteomes from inhibitor treated mice (oral gavage, sacrificed 4 h after administration). The assay is classed as in vivo. Particulars: read-out: MAGL % inh. 5 mg/kg. Summed up:
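Brains were collected 4 h after oral gavage dosing of wild-type C57Bl/6J mice, vehicle polyethylene glycol. Proteomes from these brains were then analyzed for MAGL and other serine hydrolase activity.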

`CS(=O)(=O)Nc1ccn(C(=O)N2CCN(Cc3ccc(Cl)c(N4CCN(C5CC5)CC4)c3)CC2)n1` [Example 202, N-(1-(4-(4-chloro-3-(4-cyclopropylpiperazin-1-yl)benzyl)piperazine-1-carbonyl)-1H-pyrazol-3-yl) methanesulfonamide]: the inhibition at 1 µM on MAGL [1] is no less than 75%; at FAAH it was 0 to 25%. Moreover, on MAGL [2], the IC50 was no more than 100 nM. The inhibition at 5 mg/kg on MAGL [3] fell in the range of 0 to 25%.

With `CS(=O)(=O)Nc1ccn(C(=O)N2CCN(Cc3ccc(Cl)c(N4CC5COCC5C4)c3)CC2)n1` (stereo not shown) [Example 203, N-(1-(4-(4-chloro-3-(tetrahydro-1H-furo[3,4-c]pyrrol-5(3H)-yl)benzyl)piperazine-1-carbonyl)-1H-pyrazol-3-yl) methanesulfonamide], the IC50 is no more than 100 nM on MAGL [1], 1000 to 10000 nM on FAAH and no more than 100 nM on MAGL [2]. In addition, the inhibition at 1 µM at MAGL [1] is no less than 75%; on FAAH, 0 to 25%. In addition, the inhibition at 5 mg/kg at MAGL [3] is 0 to 25%.

Consider `CS(=O)(=O)Nc1ccn(C(=O)N2CCN(Cc3ccc(Cl)c(N4C5CCC4COC5)c3)CC2)n1` [Example 204, N-(1-(4-(3-(3-oxa-8-azabicyclo[3.2.1]octan-8-yl)-4-chlorobenzyl)piperazine-1-carbonyl)-1H-pyrazol-3-yl) methanesulfonamide], for which the IC50 at MAGL [1] was 100 to 1000 nM; at FAAH it was 1000 to 10000 nM; at MAGL [2] it was no more than 100 nM. Besides, the values for the inhibition at 1 µM on MAGL [1] and at FAAH were no less than 75% and 0 to 25%, respectively. In addition, at MAGL [3], the inhibition at 5 mg/kg was in the range of 0 to 25%.

For `CC(=O)N1CC2CCC(C1)N2c1cc(C(F)(F)F)ccc1CN1CCN(C(=O)n2ccc(NS(C)(=O)=O)n2)CC1` [Example 207, N-(1-(4-(2-(3-acetyl-3,8-diazabicyclo[3.2.1]octan-8-yl)-4-(trifluoromethyl)benzyl)piperazine-1-carbonyl)-1H-pyrazol-3-yl) methanesulfonamide], the figures for the inhibition at 1 µM on MAGL [1] and on FAAH were no less than 75% and 0 to 25%, respectively. This molecule also had an IC50 on MAGL [2] of no more than 100 nM. Further, on MAGL [3], the inhibition at 5 mg/kg was in the range of 0 to 25%.

Regarding `CS(=O)(=O)Nc1ccn(C(=O)N2CCN(Cc3ccc(Cl)c(N4CC5CN(S(C)(=O)=O)CC5C4)c3)CC2)n1` (stereo not shown) [Example 217, N-(1-(4-(4-chloro-3-(5-(methylsulfonyl)hexahydropyrrolo[3,4-c]pyrrol-2(1H)-yl)benzyl)piperazine-1-carbonyl)-1H-pyrazol-3-yl) methanesulfonamide], the inhibition at 1 µM at MAGL [1] was no less than 75%; on FAAH, 0 to 25%. On MAGL [2], this molecule came in with an IC50 of no more than 100 nM. Also, the inhibition at 5 mg/kg at MAGL [3] is 0 to 25%.

Turning to `CS(=O)(=O)Nc1ccn(C(=O)N2CCN(Cc3ccc(C(F)(F)F)c(N4C5CCC4COC5)c3)CC2)n1` [Example 218, N-(1-(4-(3-(3-oxa-8-azabicyclo[3.2.1]octan-8-yl)-4-(trifluoromethyl)benzyl)piperazine-1-carbonyl)-1H-pyrazol-3-yl) methanesulfonamide], the inhibition at 1 µM was no less than 75% on MAGL [1] and 0 to 25% on FAAH. In addition, the IC50 on MAGL [2] was no more than 100 nM. Besides, the inhibition at 5 mg/kg on MAGL [3] was 25 to 50%.

On to `CS(=O)(=O)Nc1ccn(C(=O)N2CCN(Cc3ccc(Cl)c(OC4CCOCC4)c3)CC2)n1` [Example 219, N-(1-(4-(4-chloro-3-((tetrahydro-2H-pyran-4-yl)oxy)benzyl)piperazine-1-carbonyl)-1H-pyrazol-3-yl) methanesulfonamide], for which the results for the inhibition at 1 µM on MAGL [1] and at FAAH were no less than 75% and 0 to 25%, respectively. Also, on MAGL [2], the IC50 is no more than 100 nM. Also, the inhibition at 5 mg/kg on MAGL [3] was in the range of 25 to 50%.

In the case of `CS(=O)(=O)Nc1ccn(C(=O)N2CCN(Cc3ccc(Cl)c(-c4nccs4)c3)CC2)n1` [Example 221, N-(1-(4-(4-chloro-3-(thiazol-2-yl)benzyl)piperazine-1-carbonyl)-1H-pyrazol-3-yl) methanesulfonamide], the values for the inhibition at 1 µM on MAGL [1] and on FAAH were no less than 75% and 0 to 25%, respectively. This molecule yielded an IC50 on MAGL [2] of no more than 100 nM. Further, on MAGL [3], the inhibition at 5 mg/kg fell in the range of 0 to 25%.

For the molecule `CC(=O)N1CCC2(CC1)CN(c1cc(C(F)(F)F)ccc1CN1CCN(C(=O)n3ccc(NS(C)(=O)=O)n3)CC1)C2` [Example 229, N-(1-(4-(2-(7-acetyl-2,7-diazaspiro[3.5]nonan-2-yl)-4-(trifluoromethyl)benzyl)piperazine-1-carbonyl)-1H-pyrazol-3-yl) methanesulfonamide], the inhibition at 1 µM is no less than 75% on MAGL [1] and 0 to 25% on FAAH. For the same molecule, the IC50 at MAGL [2] was no more than 100 nM. Further, on MAGL [3], the inhibition at 5 mg/kg is 0 to 25%.

For `CC(=O)N1CCC2(CC1)CCN(c1cc(C(F)(F)F)ccc1CN1CCN(C(=O)n3ccc(NS(C)(=O)=O)n3)CC1)C2` [Example 232, N-(1-(4-(2-(8-acetyl-2,8-diazaspiro[4.5]decan-2-yl)-4-(trifluoromethyl)benzyl)piperazine-1-carbonyl)-1H-pyrazol-3-yl) methanesulfonamide], the inhibition at 1 µM on MAGL [1] is no less than 75%; at FAAH it was 0 to 25%. This molecule showed an IC50 at MAGL [2] of no more than 100 nM. At MAGL [3], the inhibition at 5 mg/kg lay in the range of 0 to 25%.

`CS(=O)(=O)Nc1ccn(C(=O)N2CCN(Cc3ccc(Cl)c(-c4ccc(C(F)(F)F)nc4)c3)CC2)n1` [Example 233, N-(1-(4-(4-chloro-3-(6-(trifluoromethyl)pyridin-3-yl)benzyl)piperazine-1-carbonyl)-1H-pyrazol-3-yl) methanesulfonamide]: the inhibition at 1 µM on MAGL [1] was no less than 75%; on FAAH it was 0 to 25%. For the same molecule, the IC50 on MAGL [2] is no more than 100 nM. Further, on MAGL [3], the inhibition at 5 mg/kg fell in the range of 25 to 50%.

As for `CS(=O)(=O)Nc1ccn(C(=O)N2CCN(Cc3cccc(Cl)c3N3CC4CCC(C3)O4)CC2)n1` [Example 288, N-(1-(4-(2-(8-oxa-3-azabicyclo[3.2.1]octan-3-yl)-3-chlorobenzyl)piperazine-1-carbonyl)-1H-pyrazol-3-yl) methanesulfonamide], the figures for the IC50 at MAGL [1], on FAAH and on MAGL [2] were no more than 100 nM, 1000 to 10000 nM and no more than 100 nM, respectively. In addition, the inhibition at 1 µM on MAGL [1] was no less than 75%; on FAAH, 0 to 25%. Besides, the inhibition at 5 mg/kg on MAGL [3] lay within 0 to 25%.

In the case of `[2H]C([2H])([2H])c1cc(CN2CCCC23CCN(C(=O)n2ccc(NC(C)=O)n2)CC3)ccc1Cl` [Example 294, N-(1-(1-(4-chloro-3-(methyl-d3)benzyl)-1,8-diazaspiro[4.5]decane-8-carbonyl)-1H-pyrazol-3-yl)acetamide], the inhibition at 1 µM on MAGL [1] was no less than 75%; on FAAH, 0 to 25%. The IC50 at MAGL [2] is no more than 100 nM. For the same molecule, the inhibition at 5 mg/kg at MAGL [3] is no less than 75%.
